# What was measured:
# Staphylococcus aureus [1] = experiment: Antibacterial activity against methicillin-resistant Staphylococcus aureus ATCC 43300 assessed as inhibition of bacterial growth incubated for 16 hrs by CLSI based broth microdilution method; assay type: functional
# Staphylococcus aureus [2] = experiment: Antibacterial activity against Staphylococcus aureus ATCC 29213 assessed as inhibition of bacterial growth incubated for 16 hrs by CLSI based broth microdilution method; assay type: functional
# Staphylococcus aureus [3] = experiment: Antibacterial activity against Staphylococcus aureus AD3 assessed as inhibition of bacterial growth incubated for 16 hrs by CLSI based broth microdilution method; assay type: functional
# Staphylococcus aureus [4] = experiment: Antibacterial activity against Staphylococcus aureus 144 assessed as inhibition of bacterial growth incubated for 16 hrs by CLSI based broth microdilution method; assay type: functional
# Staphylococcus aureus [5] = experiment: Antibacterial activity against Staphylococcus aureus SA17 assessed as inhibition of bacterial growth incubated for 16 hrs by CLSI based broth microdilution method; assay type: functional
# RAW264.7 = experiment: Cytotoxicity against mouse RAW264.7 cells assessed as reduction in cell viability at 8 ug/ml incubated for 16 hrs by MTT assay; assay type: toxicity, cell-based; details: raw264.7, 16 h, dose 8 µg/ml
# 16HBE14o- [6] = experiment: Cytotoxicity against human 16HBE14o- cells assessed as reduction in cell viability at 8 ug/ml incubated for 16 hrs by MTT assay; assay type: toxicity, cell-based; details: dose 8 µg/ml
# [7] = Clearance in mouse assessed as hepatic blood flow at 10 mg/kg, iv administered as bolus infection measured upto 24 hrs by LC-MS analysis; assay type: ADME, organism-based; details: in vivo
# Staphylococcus aureus [8] = experiment: Antibacterial activity against methicillin-resistant Staphylococcus aureus ATCC 43300 assessed as log reduction in colony forming unit at 4 times MIC measured after 3 hrs by time kill assay; assay type: functional
# Staphylococcus aureus [9] = experiment: Antibacterial activity against methicillin-resistant Staphylococcus aureus ATCC 43300 assessed as log reduction in colony forming unit at 4 times MIC measured after 24 hrs by time kill assay; assay type: functional
# Staphylococcus aureus [10] = experiment: Antibacterial activity against methicillin-resistant Staphylococcus aureus ATCC 43300 infected in ICR/Swiss mouse […] thigh infection model assessed as log reduction in bacterial load in thigh at 20 mg/kg, iv administered as bolus injection measured after 24 hrs; assay type: functional
# Staphylococcus aureus [11] = experiment: Antibacterial activity against methicillin-resistant Staphylococcus aureus ATCC 43300 infected in ICR/Swiss mouse systemic infection model assessed as survival rate at 30 mg/kg, iv administered as bolus injection 1 hr post infection measured twice daily after 3 to 7 days; assay type: functional; details: time 3-7 day
# [12] = MRT in mouse at 10 mg/kg, iv administered as bolus infection measured upto 24 hrs by LC-MS analysis; assay type: ADME, organism-based; details: in vivo
# [13] = Half life in mouse at 10 mg/kg, iv administered as bolus infection measured upto 24 hrs by LC-MS analysis; assay type: ADME, organism-based; details: in vivo
# [14] = Clearance in mouse at 10 mg/kg, iv administered as bolus infection measured upto 24 hrs by LC-MS analysis; assay type: ADME, organism-based; details: in vivo
# [15] = AUC(0 to t) in mouse at 10 mg/kg, iv administered as bolus injection measured upto 24 hrs by LC-MS analysis; assay type: ADME, organism-based; parameters: dose 10 mg/kg, time < 24 hrs, route iv; details: in vivo
# [16] = AUC(0 to infinity) in mouse at 10 mg/kg, iv administered as bolus injection measured upto 24 hrs by LC-MS analysis; assay type: ADME, organism-based; parameters: time < 24 hrs, dose 10 mg/kg, route iv; details: in vivo
# [17] = biological target: Bacterial 70S ribosome (Bacteria) (UniProt P0A7V0+P60723+P0AG67+P0A7R5+P0A7R9+P0A7S3+P0A7S9+P0AG59+P0ADZ4+P0A7T3+P0AG63+P0A7T7+P0A7U3+P0A7U7+P68679+P0A7V3+P0A7V8+P0A7W1+P02358+P02359+P0A7W7+P0A7X3+P0A7J3+P0A7J7+P0AA10+P0ADY3+P02413+P0ADY7+P0AG44+P0C018+P0A7K6+P0A7L0+P0A7L3+P0AG48+P61175+P0ADZ0+P60624+P68919+P0A7L8+P0A7M2+P0A7M6+P60422+P0AG51+P0A7N1+P0A7M9+P0A7N4+P0A7N9+P0A7P5+P0A7Q1+Q2EEQ2+P0A7Q6+P60438+P62399+P0AG55+P0A7K2); experiment: Binding affinity to Staphylococcus aureus ATCC 43300 50S ribosomal subunit assessed as association rate constant by surface plasmon resonance analysis; assay type: subcellular
# Bacterial 70S ribosome = experiment: Binding affinity to Staphylococcus aureus ATCC 43300 50S ribosomal subunit assessed as equilibrium dissociation constant by surface plasmon resonance analysis; assay type: subcellular
# 16HBE14o- [18] = experiment: Cytotoxicity against human 16HBE14o- cells assessed as reduction in cell viability at 8 ug/ml incubated for 16 hrs by MTT assay relative to control; assay type: toxicity, cell-based; details: at 8 µg/mL
# Staphylococcus aureus [19] = experiment: Antibacterial activity against methicillin-resistant Staphylococcus aureus ATCC 43300 infected in ICR/Swiss mouse systemic infection model assessed as survival rate at 30 mg/kg, iv administered as bolus injection 1 hr post infection measured twice daily after 2 to 7 days; assay type: functional; details: time 2-7 day
SMILES,MIC (Staphylococcus aureus [1]) [µg/mL],MIC (Staphylococcus aureus [2]) [µg/mL],MIC (Staphylococcus aureus [3]) [µg/mL],MIC (Staphylococcus aureus [4]) [µg/mL],MIC (Staphylococcus aureus [5]) [µg/mL],Activity (RAW264.7),Activity (16HBE14o- [6]),further results
C=C[C@]1(C)C[C@@H](OC(=O)CSc2nnc(-c3ccccc3[N+](=O)[O-])[nH]2)[C@]2(C)[C@H](C)CC[C@]3(CCC(=O)[C@H]32)[C@@H](C)[C@@H]1O,0.25,0.125,0.25,0.25,0.125,Non-Toxic,Non-Toxic,
C=C[C@]1(C)C[C@@H](OC(=O)CSc2nnc(-c3ccccc3F)[nH]2)[C@]2(C)[C@H](C)CC[C@]3(CCC(=O)[C@H]32)[C@@H](C)[C@@H]1O,0.0625,0.125,0.03,0.25,0.125,Non-Toxic,Non-Toxic,QH [7]: 90 mL/min/kg; Activity (Staphylococcus aureus [8]): -1.66 log10CFU/ml; Activity (Staphylococcus aureus [9]): -7.7 log10CFU/ml; Activity (Staphylococcus aureus [10]): -1.53 log10CFU/ml; survival at 30 mg/kg (Staphylococcus aureus [11]): 50%; MRT [12]: 93.6 min; t1/2 [13]: 22.2 min; clearance [14]: 90.5 mL/min/kg; AUC(0-t) at 24 h [15]: 1830 ng·h/mL; AUC(0-inf) [16]: 1840 ng·h/mL; Ka [17]: 1.04 10^3/M.s; Kd (Bacterial 70S ribosome): 1950 nM
C=C[C@]1(C)C[C@@H](OC(=O)CSc2nnc(-c3ccccc3Cl)[nH]2)[C@]2(C)[C@H](C)CC[C@]3(CCC(=O)[C@H]32)[C@@H](C)[C@@H]1O,0.125,0.5,0.125,0.5,0.5,Non-Toxic,Non-Toxic,
C=C[C@]1(C)C[C@@H](OC(=O)CSc2nnc(-c3ccc(OC)cc3)[nH]2)[C@]2(C)[C@H](C)CC[C@]3(CCC(=O)[C@H]32)[C@@H](C)[C@@H]1O,0.125,0.25,0.0625,1,0.5,Non-Toxic,Non-Toxic,
C=C[C@]1(C)C[C@@H](OC(=O)CSc2nnc(-c3ccc(F)cc3)[nH]2)[C@]2(C)[C@H](C)CC[C@]3(CCC(=O)[C@H]32)[C@@H](C)[C@@H]1O,0.125,0.125,0.0625,1,1,Non-Toxic,Non-Toxic,
C=C[C@]1(C)C[C@@H](OC(=O)CSc2nnc(-c3ccccc3C)[nH]2)[C@]2(C)[C@H](C)CC[C@]3(CCC(=O)[C@H]32)[C@@H](C)[C@@H]1O,0.0625,0.25,0.125,1,0.5,Non-Toxic,Non-Toxic,
C=C[C@]1(C)C[C@@H](OC(=O)CSc2nnc(-c3cccc(Cl)c3)[nH]2)[C@]2(C)[C@H](C)CC[C@]3(CCC(=O)[C@H]32)[C@@H](C)[C@@H]1O,0.0625,0.125,0.125,0.25,0.125,Non-Toxic,Non-Toxic,Activity (Staphylococcus aureus [8]): -1 log10CFU/ml; Activity (Staphylococcus aureus [9]): -9.23 log10CFU/ml
C=C[C@]1(C)C[C@@H](OC(=O)CSc2nnc(-c3ccc(C(F)(F)F)cc3)[nH]2)[C@]2(C)[C@H](C)CC[C@]3(CCC(=O)[C@H]32)[C@@H](C)[C@@H]1O,0.5,2,0.25,> 32,> 32,Non-Toxic,,Activity (16HBE14o- [18]): > 50%
C=C[C@]1(C)C[C@@H](OC(=O)CSc2nnc(-c3cccc(OC)c3)[nH]2)[C@]2(C)[C@H](C)CC[C@]3(CCC(=O)[C@H]32)[C@@H](C)[C@@H]1O,0.125,0.125,0.0625,0.5,0.5,Non-Toxic,Non-Toxic,
C=C[C@]1(C)C[C@@H](OC(=O)CSc2nnc(-c3cccc(C)c3)[nH]2)[C@]2(C)[C@H](C)CC[C@]3(CCC(=O)[C@H]32)[C@@H](C)[C@@H]1O,0.25,0.25,0.0625,4,1,Non-Toxic,Non-Toxic,
C=C[C@]1(C)C[C@@H](OC(=O)CSc2nnc(-c3ccc(Cl)cc3)[nH]2)[C@]2(C)[C@H](C)CC[C@]3(CCC(=O)[C@H]32)[C@@H](C)[C@@H]1O,0.125,0.0625,0.125,1,0.5,Non-Toxic,Non-Toxic,
C=C[C@]1(C)C[C@@H](OC(=O)CSc2nnc(-c3cccc(C(F)(F)F)c3)[nH]2)[C@]2(C)[C@H](C)CC[C@]3(CCC(=O)[C@H]32)[C@@H](C)[C@@H]1O,1,2,0.25,> 32,> 32,Non-Toxic,,Activity (16HBE14o- [18]): > 50%
C=C[C@]1(C)C[C@@H](OC(=O)CSc2nnc(-c3cccc(F)c3)[nH]2)[C@]2(C)[C@H](C)CC[C@]3(CCC(=O)[C@H]32)[C@@H](C)[C@@H]1O,0.125,0.125,0.0625,1,0.5,Non-Toxic,Non-Toxic,
C=C[C@]1(C)C[C@@H](OC(=O)CSc2nnc(-c3ccc([N+](=O)[O-])cc3)[nH]2)[C@]2(C)[C@H](C)CC[C@]3(CCC(=O)[C@H]32)[C@@H](C)[C@@H]1O,0.125,0.25,0.0625,2,0.5,Non-Toxic,Non-Toxic,
C=C[C@]1(C)C[C@@H](OC(=O)CSc2nnc(-c3ccccc3OC)[nH]2)[C@]2(C)[C@H](C)CC[C@]3(CCC(=O)[C@H]32)[C@@H](C)[C@@H]1O,0.0625,0.125,0.0625,0.125,0.125,Non-Toxic,Non-Toxic,Activity (Staphylococcus aureus [8]): -1.53 log10CFU/ml; Activity (Staphylococcus aureus [9]): -7.1 log10CFU/ml; Activity (Staphylococcus aureus [10]): -1.27 log10CFU/ml; Ka [17]: 4.99 10^2/Ms; Kd (Bacterial 70S ribosome): 121000 nM
C=C[C@]1(C)C[C@@H](OC(=O)CSCCN(CC)CC)[C@]2(C)[C@H](C)CC[C@]3(CCC(=O)[C@H]32)[C@@H](C)[C@@H]1O [TIAMULIN],0.5,0.5,0.5,1,1,,,Activity (Staphylococcus aureus [10]): -1.1 log10CFU/ml; survival at 30 mg/kg (Staphylococcus aureus [19]): 30%; Ka [17]: 1.22 10^2/Ms; Kd (Bacterial 70S ribosome): 36.3 nM
C=C[C@]1(C)C[C@@H](OC(=O)CSc2nnc(-c3cccc([N+](=O)[O-])c3)[nH]2)[C@]2(C)[C@H](C)CC[C@]3(CCC(=O)[C@H]32)[C@@H](C)[C@@H]1O,0.125,0.25,0.0625,2,0.5,Non-Toxic,Non-Toxic,
C=C[C@]1(C)C[C@@H](OC(=O)CSc2nnc(-c3ccccc3C(F)(F)F)[nH]2)[C@]2(C)[C@H](C)CC[C@]3(CCC(=O)[C@H]32)[C@@H](C)[C@@H]1O,0.25,0.5,0.25,8,4,Non-Toxic,Non-Toxic,
C=C[C@]1(C)C[C@@H](OC(=O)CSc2nnc(-c3ccc(C)cc3)[nH]2)[C@]2(C)[C@H](C)CC[C@]3(CCC(=O)[C@H]32)[C@@H](C)[C@@H]1O,0.125,0.125,0.0625,1,0.5,Non-Toxic,Non-Toxic,
